# From patent US20230085307A1, “PYRIDAZINONE COMPOUND AND HERBICIDE” (NISSAN CHEMICAL CORPORATION, priority 2019, published 2023)
# Tests used:
# redroot pigweed [1] = test: Test Example 4: herbicidal effect by soil treatment (Table 19, symbol N); assay type: in vivo, redroot pigweed (Amaranthus retroflexus); settings: amount of applied herbicide 320 g/ha
# Summary of the method: (§1)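 In this soil treatment, the formulated compound reached the seeds only through the soil: seeds were buried about 1.5 cm deep in sterilized diluvial soil, then the diluted emulsion was sprayed over the surface. After three weeks at 25° C. to 30° C. in a greenhouse, effects were graded on criteria from an earlier test.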
# southern crabgrass [2] = test: Test Example 4: herbicidal effect by soil treatment (Table 19, symbol F); assay type: in vivo, southern crabgrass (Digitaria ciliaris); settings: amount of applied herbicide 320 g/ha
# Summary of the method: as §1
# blackgrass [3] = test: Test Example 5: herbicidal effect by foliage application, plastic box (Table 20, symbol J); assay type: in vivo, blackgrass (Alopecurus myosuroides); settings: amount of applied herbicide 320 g/ha; foliage application after 14-day growth; evaluated three weeks after application
# Summary of the method: (§2)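 Plants were sown into sterilized diluvial soil under about 1.5 cm cover and kept in a greenhouse at 25° C. to 30° C. Fourteen days on, foliage received an even spray of the diluted emulsion. Herbicidal or crop effect was judged three weeks afterwards.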
# green foxtail [4] = test: Test Example 5: herbicidal effect by foliage application, plastic box (Table 20, symbol G); assay type: in vivo, green foxtail (Setaria viridis); settings: amount of applied herbicide 320 g/ha; foliage application after 14-day growth; evaluated three weeks after application
# Summary of the method: as §2
# windgrass [5] = test: Test Example 5: herbicidal effect by foliage application, plastic box (Table 20, symbol L); assay type: in vivo, windgrass (Apera spica-venti); settings: amount of applied herbicide 320 g/ha; foliage application after 14-day growth; evaluated three weeks after application
# Summary of the method: as §2
# rice flat sedge = test: Test Example 3: herbicidal effect by foliage application, Wagner pot (Table 18, symbol E); assay type: in vivo, rice flat sedge (Cyperus iria); settings: 320 g/ha
# Summary of the method: (§3)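 Plants were sown in alluvial soil held under 0.1–0.5 cm standing water and grown 14 days in a greenhouse at 25–30 °C. An emulsifiable formulation, water-diluted to the set dose, was then sprayed onto the foliage, and effects were scored three weeks later using previously defined criteria.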
# Chinese sprangletop = test: Test Example 3: herbicidal effect by foliage application, Wagner pot (Table 18, symbol D); assay type: in vivo, chinese sprangletop (Leptochloa chinensis); settings: 320 g/ha
# Summary of the method: as §3
# wild oat [6] = test: Test Example 4: herbicidal effect by soil treatment (Table 19, symbol I); assay type: in vivo, wild oat (Avena fatua); settings: amount of applied herbicide 320 g/ha
# Summary of the method: as §1
# velvetleaf [7] = test: Test Example 4: herbicidal effect by soil treatment (Table 19, symbol M); assay type: in vivo, velvetleaf (Abutilon theophrasti); settings: amount of applied herbicide 320 g/ha
# Summary of the method: as §1
# windgrass [8] = test: Test Example 4: herbicidal effect by soil treatment (Table 19, symbol L); assay type: in vivo, windgrass (Apera spica-venti); settings: amount of applied herbicide 320 g/ha
# Summary of the method: as §1
# Italian ryegrass [9] = test: Test Example 5: herbicidal effect by foliage application, plastic box (Table 20, symbol K); assay type: in vivo, Italian ryegrass (Lolium multiflorum); settings: amount of applied herbicide 320 g/ha; foliage application after 14-day growth; evaluated three weeks after application
# Summary of the method: as §2
# persian speedwell [10] = test: Test Example 5: herbicidal effect by foliage application, plastic box (Table 20, symbol R); assay type: in vivo, Persian speedwell (Veronica persica); settings: amount of applied herbicide 320 g/ha; foliage application after 14-day growth; evaluated three weeks after application
# Summary of the method: as §2
# velvetleaf [11] = test: Test Example 5: herbicidal effect by foliage application, plastic box (Table 20, symbol M); assay type: in vivo, velvetleaf (Abutilon theophrasti); settings: amount of applied herbicide 320 g/ha; foliage application after 14-day growth; evaluated three weeks after application
# Summary of the method: as §2
# wild oat [12] = test: Test Example 5: herbicidal effect by foliage application, plastic box (Table 20, symbol I); assay type: in vivo, wild oat (Avena fatua); settings: amount of applied herbicide 320 g/ha; foliage application after 14-day growth; evaluated three weeks after application
# Summary of the method: as §2
# Japanese bulrush = test: Test Example 1: herbicidal activity, application before weed generation under submerged conditions (Table 16, symbol B); assay type: in vivo, Japanese bulrush (Schoenoplectus juncoides); settings: amount of applied herbicide 320 g/ha
# Summary of the method: (§4)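 Emulsion formulation, water-diluted to set dose, was put onto the flooded surface (4 cm depth, alluvial soil) the same day weeds were sown and 2.5-leaf rice transplanted. After 3 weeks at 25-30 °C under glass, each species was rated 0 (≤5% kill) to 5 (≥90% kill).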
# chickweed [13] = test: Test Example 4: herbicidal effect by soil treatment (Table 19, symbol P); assay type: in vivo, common chickweed (Stellaria media); settings: amount of applied herbicide 320 g/ha
# Summary of the method: as §1
# barnyard grass [14] = test: Test Example 5: herbicidal effect by foliage application, plastic box (Table 20, symbol H); assay type: in vivo, barnyard grass (Echinochloa crus-galli); settings: amount of applied herbicide 320 g/ha; foliage application after 14-day growth; evaluated three weeks after application
# Summary of the method: as §2
# false cleavers = test: Test Example 5: herbicidal effect by foliage application, plastic box (Table 20, symbol Q); assay type: in vivo, false cleavers (Galium spurium); settings: amount of applied herbicide 320 g/ha; foliage application after 14-day growth; evaluated three weeks after application
# Summary of the method: as §2
# chickweed [15] = test: Test Example 5: herbicidal effect by foliage application, plastic box (Table 20, symbol P); assay type: in vivo, common chickweed (Stellaria media); settings: amount of applied herbicide 320 g/ha; foliage application after 14-day growth; evaluated three weeks after application
# Summary of the method: as §2
# redroot pigweed [16] = test: Test Example 5: herbicidal effect by foliage application, plastic box (Table 20, symbol N); assay type: in vivo, redroot pigweed (Amaranthus retroflexus); settings: amount of applied herbicide 320 g/ha; foliage application after 14-day growth; evaluated three weeks after application
# Summary of the method: as §2
# barnyard grass [17] = test: Test Example 4: herbicidal effect by soil treatment (Table 19, symbol H); assay type: in vivo, barnyard grass (Echinochloa crus-galli); settings: amount of applied herbicide 320 g/ha
# Summary of the method: as §1
# lambsquarters [18] = test: Test Example 5: herbicidal effect by foliage application, plastic box (Table 20, symbol O); assay type: in vivo, lambsquarters (Chenopodium album); settings: amount of applied herbicide 320 g/ha; foliage application after 14-day growth; evaluated three weeks after application
# Summary of the method: as §2
# southern crabgrass [19] = test: Test Example 5: herbicidal effect by foliage application, plastic box (Table 20, symbol F); assay type: in vivo, southern crabgrass (Digitaria ciliaris); settings: amount of applied herbicide 320 g/ha; foliage application after 14-day growth; evaluated three weeks after application
# Summary of the method: as §2
# blackgrass [20] = test: Test Example 4: herbicidal effect by soil treatment (Table 19, symbol J); assay type: in vivo, blackgrass (Alopecurus myosuroides); settings: amount of applied herbicide 320 g/ha
# Summary of the method: as §1
# Italian ryegrass [21] = test: Test Example 4: herbicidal effect by soil treatment (Table 19, symbol K); assay type: in vivo, Italian ryegrass (Lolium multiflorum); settings: amount of applied herbicide 320 g/ha
# Summary of the method: as §1
# persian speedwell [22] = test: Test Example 4: herbicidal effect by soil treatment (Table 19, symbol R); assay type: in vivo, Persian speedwell (Veronica persica); settings: amount of applied herbicide 320 g/ha
# Summary of the method: as §1
# late watergrass = test: Test Example 1: herbicidal activity, application before weed generation under submerged conditions (Table 16, symbol A); assay type: in vivo, late watergrass (Echinochloa oryzicola); settings: amount of applied herbicide 320 g/ha
# Summary of the method: as §4
# oval-leafed pondweed = test: Test Example 1: herbicidal activity, application before weed generation under submerged conditions (Table 16, symbol C); assay type: in vivo, oval-leafed pondweed (Monochoria vaginalis); settings: amount of applied herbicide 320 g/ha
# Summary of the method: as §4
# barnyard grass [23] = test: Test Example 3: herbicidal effect by foliage application, Wagner pot (Table 18, symbol H); assay type: in vivo, barnyard grass (Echinochloa crus-galli); settings: 320 g/ha
# Summary of the method: as §3
# green foxtail [24] = test: Test Example 4: herbicidal effect by soil treatment (Table 19, symbol G); assay type: in vivo, green foxtail (Setaria viridis); settings: amount of applied herbicide 320 g/ha
# Summary of the method: as §1
# lambsquarters [25] = test: Test Example 4: herbicidal effect by soil treatment (Table 19, symbol O); assay type: in vivo, lambsquarters (Chenopodium album); settings: amount of applied herbicide 320 g/ha
# Summary of the method: as §1
structure (smiles),measurement,setting,value
Cc1nn(C)c(=O)c(-c2c(-c3ccc(F)cc3)sc3cc(F)c(F)cc23)c1O [5-001],"N: redroot pigweed, herbicidal effect grade",redroot pigweed [1],5 (Herbicidal rate of 90% or more (almost completely withered))
same,"F: southern crabgrass, herbicidal effect grade",southern crabgrass [2],5 (Herbicidal rate of 90% or more (almost completely withered))
same,"Herbicidal effect by foliage application, J: blackgrass",blackgrass [3],4 (Herbicidal rate of 70% or more and less than 90%)
same,"Herbicidal effect by foliage application, G: green foxtail",green foxtail [4],5 (Herbicidal rate of 90% or more (almost completely withered))
same,"Herbicidal effect by foliage application, L: windgrass",windgrass [5],5 (Herbicidal rate of 90% or more (almost completely withered))
same,herbicidal effect on rice flat sedge (E),rice flat sedge,5 (Herbicidal rate of 90% or more (almost completely withered))
same,herbicidal effect on Chinese sprangletop (D),Chinese sprangletop,3 (Herbicidal rate of 40% or more and less than 70%)
same,"I: wild oat, herbicidal effect grade",wild oat [6],3 (Herbicidal rate of 40% or more and less than 70%)
same,"M: velvetleaf, herbicidal effect grade",velvetleaf [7],4 (Herbicidal rate of 70% or more and less than 90%)
same,"L: windgrass, herbicidal effect grade",windgrass [8],5 (Herbicidal rate of 90% or more (almost completely withered))
same,"Herbicidal effect by foliage application, K: Italian ryegrass",Italian ryegrass [9],5 (Herbicidal rate of 90% or more (almost completely withered))
same,"Herbicidal effect by foliage application, R: persian speedwell",persian speedwell [10],5 (Herbicidal rate of 90% or more (almost completely withered))
same,"Herbicidal effect by foliage application, M: velvetleaf",velvetleaf [11],5 (Herbicidal rate of 90% or more (almost completely withered))
same,"Herbicidal effect by foliage application, I: wild oat",wild oat [12],4 (Herbicidal rate of 70% or more and less than 90%)
same,"Herbicidal effect, B: Japanese bulrush",Japanese bulrush,1 (Herbicidal rate of 5% or more and less than 20%)
same,"P: chickweed, herbicidal effect grade",chickweed [13],4 (Herbicidal rate of 70% or more and less than 90%)
same,"Herbicidal effect by foliage application, H: barnyard grass",barnyard grass [14],4 (Herbicidal rate of 70% or more and less than 90%)
same,"Herbicidal effect by foliage application, Q: false cleavers",false cleavers,5 (Herbicidal rate of 90% or more (almost completely withered))
same,"Herbicidal effect by foliage application, P: chickweed",chickweed [15],5 (Herbicidal rate of 90% or more (almost completely withered))
same,"Herbicidal effect by foliage application, N: redroot pigweed",redroot pigweed [16],5 (Herbicidal rate of 90% or more (almost completely withered))
same,"H: barnyard grass, herbicidal effect grade",barnyard grass [17],0 (Herbicidal rate of 5% or less (almost no effect))
same,"Herbicidal effect by foliage application, O: lambsquarters",lambsquarters [18],5 (Herbicidal rate of 90% or more (almost completely withered))
same,"Herbicidal effect by foliage application, F: southern crabgrass",southern crabgrass [19],5 (Herbicidal rate of 90% or more (almost completely withered))
same,"J: blackgrass, herbicidal effect grade",blackgrass [20],4 (Herbicidal rate of 70% or more and less than 90%)
same,"K: Italian ryegrass, herbicidal effect grade",Italian ryegrass [21],5 (Herbicidal rate of 90% or more (almost completely withered))
same,"R: persian speedwell, herbicidal effect grade",persian speedwell [22],5 (Herbicidal rate of 90% or more (almost completely withered))
same,"Herbicidal effect, A: late watergrass",late watergrass,3 (Herbicidal rate of 40% or more and less than 70%)
same,"Herbicidal effect, C: oval-leafed pondweed",oval-leafed pondweed,0 (Herbicidal rate of 5% or less (almost no effect))
same,herbicidal effect on barnyard grass (H),barnyard grass [23],4 (Herbicidal rate of 70% or more and less than 90%)
same,"G: green foxtail, herbicidal effect grade",green foxtail [24],5 (Herbicidal rate of 90% or more (almost completely withered))
same,"O: lambsquarters, herbicidal effect grade",lambsquarters [25],5 (Herbicidal rate of 90% or more (almost completely withered))
